From patent US20120052130A1, “GPR 119 MODULATORS” (Pfizer Inc., priority 2009, published 2012)

Molecular target: T1, human GPR119 (Homo sapiens, UniProt Q8TDV5)
T1 sequence (Q8TDV5 1-335): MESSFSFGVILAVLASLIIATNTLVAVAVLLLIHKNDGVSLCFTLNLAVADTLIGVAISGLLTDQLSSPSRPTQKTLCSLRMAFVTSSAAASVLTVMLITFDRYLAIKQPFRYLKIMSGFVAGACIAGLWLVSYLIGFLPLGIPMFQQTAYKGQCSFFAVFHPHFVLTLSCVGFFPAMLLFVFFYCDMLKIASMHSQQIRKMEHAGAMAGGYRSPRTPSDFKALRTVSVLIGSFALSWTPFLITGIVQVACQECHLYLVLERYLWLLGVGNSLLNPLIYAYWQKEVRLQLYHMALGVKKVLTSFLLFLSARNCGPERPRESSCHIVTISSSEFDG
Assay: β-lactamase reporter functional assay for GPR119 agonists (hGPR119 HEK293-CRE beta-lactamase cells)
Format: cell-based
Parameters: host or cells: hGPR119-HEK293-CRE-beta-lactamase cells
Conditions: hGPR119 HEK293-CRE beta-lactamase cells; each line is a separate determination; read-out: Human B-lactamase Functional EC50
Procedure: The assay for GPR119 agonists utilizes a cell-based (hGPR119HEK293-CRE beta-lactamase) reporter construct where agonist activation of human GPR119 is coupled to beta-lactamase production via a cyclic AMP response element (CRE). GPR119 activity is then measured utilizing a FRET-enabled beta-lactamase substrate, CCF4-AM (Live Blazer FRET-B/G Loading kit, Invitrogen cat #K1027). […] Fluorescence was measured on an EnVision fluorimetric plate reader, excitation 405 nm, emission 460 nm/535 nm. EC50 determinations were made from agonist-response curves analyzed with a curve fitting program using a 4-parameter logistic dose-response equation.

- EC50: 0.0647 µM
SMILES: Cc1c(O[C@@H]2[C@@H]3COC[C@H]2CN(C(=O)OC(C)C)C3)ncnc1N1CCc2cc(S(C)(=O)=O)ccc21 [Example 23, Isopropyl (9-syn)-9-({5-methyl-6-[5-(methylsulfonyl)-2,3-dihydro-1H-indol-1-yl]pyrimidin-4-yl}oxy)-3-oxa-7-azabicyclo[3.3.1]nonane-7-carboxylate]
